Test results reported in patent US5208244A, “Method of selectively inhibiting calcium-independent myocardial phospholipase A2” (priority 1990, dated 1993).
pIC50: −log10 of the molar value. Structures can show the parent of a compound that is named as a salt. Where two headings read alike, the source gives them in different places.

How the values were obtained:
sheep platelet PLA2 = experiment: Calcium-dependent sheep platelet PLA2 assay; assay type: biochemical; conditions: 1 μM CaCl2, pH 7.2; > : inhibition observed but not enough for an IC50 at highest concentration
Description: (§1) Several other PLA2 assays were utilized in order to gain some measure of the selectivity of the inhibitors of calcium-independent myocardial PLA2. Specifically, three other calcium-dependent mammalian PLA2 assays are used: (1) sheep platelet PLA2, (2) human synovial fluid PLA2, and (3) porcine pancreatic PLA2. The PLA2 enzymes represent different groups of PLA2 enzymes. Myocardial PLA2, platelet PLA2, and secreted PLA2 enzymes (human synovial fluid PLA2 and porcine pancreatic PLA2) have very different calcium requirements, which may be typical of their respective classes.
Homogeneous sheep platelet cytosolic PLA2 was prepared as described by Loeb, L. A., and Gross, R. W. J. Biol. Chem. 261, 10467-10470 (1986). The purified calcium-dependent platelet PLA2 was preincubated in 70 mM Tris-Cl (pH 7.2) containing 1 μM CaCl2 and test compound for 5 min at 25° C. Catalysis was initiated by injection 1 μM radiolabeled substrate (1-O-(Z)-(1'-hexadecenyl)-2-[9,10-^3 H]-oleoyl-3-phosphorylcholine). After a 10 min incubation period at 37° C., reaction products were extracted with n-butanol, separated by thin layer chromatography, and quantified by scintillation spectrometry. PLA2 activity was compared in the presence and absence of test compound and the IC50 was determined.
(§2) Two greater than symbols (>>) indicate little or no inhibition at the highest concentration used. Activation of an enzyme is indicated by a +X% which gave that activation of X%.

porcine pancreatic PLA2 = molecular target: T1, porcine pancreatic PLA2 (Sus scrofa, UniProt P00592); experiment: Porcine pancreatic PLA2 assay ([14C]-oleate labelled E. coli); assay type: biochemical; conditions: 10 mM CaCl2, pH 8.0; > : inhibition but not enough for an IC50; >> : little or no inhibition at highest concentration; read-out: Porcine Pancr. PLA2 IC50
T1 construct: purchased Sigma (St. Louis); host or cells: porcine pancreas
Description: as §1
Purified porcine pancreatic PLA2 was obtained from Sigma (St. Louis, Miss.). PLA2 activity was measured by using [^14 C]-oleate labelled autoclaved E. coli as described by Franson, Patriarca and Elsbach (referenced above). The assay was performed at 37° C. for 5 min in a final volume of 100 μL Tris-HCl buffer (100
mM, pH 8.0) containing 1 mM EDTA, 10 mM CaCl2, and E. coli (containing 10 nmol phospholipid). The test compound or control vehicle was preincubated with PLA2 for 5 min, followed by adding E. coli to initiate the reaction. The reaction was terminated by adding 2 mL tetrahydrofuran. The reaction product, [^14 C]-oleic acid, was isolated using a 1 mL Bond Elute--NH2 column and counted by liquid scintillation spectrometry.
as §2

[1] = molecular target: T2, human synovial fluid PLA2 (Homo sapiens, UniProt P14555); experiment: Human synovial fluid PLA2 assay ([14C]-oleate labelled E. coli); assay type: biochemical; conditions: 5 mM CaCl2, pH 7.0; > : inhibition but not enough for an IC50; >> : little or no inhibition at highest concentration; read-out: HSF PLA2 IC50
T2 construct: Purified human synovial fluid PLA2; from tissue; host or cells: human synovial fluid; obtained from R. C; Franson (Medical College of Virginia)
T2 sequence (P14555 21-144): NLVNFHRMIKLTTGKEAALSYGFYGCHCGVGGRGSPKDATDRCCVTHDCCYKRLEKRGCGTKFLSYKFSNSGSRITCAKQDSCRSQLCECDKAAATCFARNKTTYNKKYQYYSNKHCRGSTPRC
Description: as §1
Purified human synovial fluid PLA2 (purified by the procedure of Fawzy, A. A. and Franson, R. C. Biophys. J. 49, 533a [1986]) was obtained from R. C. Franson (Medical College of Virginia, Richmond, Va.). PLA2 activity was measured by using [^14 C]-oleate labelled autoclaved E. coli as substrate as described by Franson, R. C., Patriarca, P., and Elsbach, P. J. Lipid Res. 15, 380-388 (1974). The assay was performed at 37° C. for 30 min in a final volume of 100 μL 50 mM Hepes buffer (pH 7.0) containing 150 mM NaCl, 5 mM CaCl2, and E. coli cells (corresponding to 10 nmol phospholipid). The test compound or control vehicle was preincubated with PLA2 for 5 min, followed by adding E. coli to initiate the reaction. The reaction was terminated by adding 2 mL tetrahydrofuran. The reaction product, [^14 C]-oleic acid, was isolated using a 1 mL Bond Elute--NH2 column and counted by liquid scintillation spectrometry.
as §2

HL-60 cells = experiment: HL-60 cell assay for LTB4 and PGE2 production (calcium ionophore A23187 induced); assay type: cell-based; conditions: for pIC50: Homo sapiens, HL-60, A23187 5×10^-6 M, > : inhibition but not enough for an IC50
Protocol: An additional whole cell assay was also performed. In this assay, HL-60 cells are induced with the calcium ionophore A23187 in the presence of varying amounts of inhibitor, and the amounts of the prostaglandin E2 (PGE2) and leukotriene B4 (LTB4) which form are measured. Calcium ionophore A23187 activates a calcium-dependent PLA2 which leads to the enhanced production of the arachidonic acid metabolites PGE2 and LTB4. The concentrations of inhibitor which decrease the production of PGE2 and LTB4 by 50% relative to controls are expressed as IC50 values.
HL-60 Cell Assay for LTB4 and PGE2 Production
HL-60 cells grown exponentially in culture were induced to differentiate into granulocytes by a four day incubation with 0.8% (v/v) N,N-dimethylformamide. Prior to assay, differentiated HL-60 cells were washed once with Hanks' balanced salt solution containing 0.35 mg/mL sodium bicarbonate and 10 mM Hepes, pH 7.3 (HBSS) and resuspended in HBSS at a 3×10^6 cells/mL concentration. DMSO or test compounds solubilized in DMSO were added at 1:100 dilution to 1.0 mL HL-60 cell suspensions (3×10^6 cells) and preincubated at 37° C. for 10 min in a shaking water bath. After an additional 5 min incubation with 5×10^-6 M calcium ionophore, A23187 (Calbiochem, La Jolla, Calif.), the cells were centrifuged at 12,800×g for 15 seconds and the supernatant (0.8 mL) removed and stored at -20° C. for LTB4 and PGE2 quantitation by radioimmunoassay (kits obtained from Amersham, United Kingdom and NEN Research Products, N. Billerica, Mass.).
as §2

[2] = tested on: calcium-independent canine myocardial PLA2; experiment: Inhibition of purified calcium-independent canine myocardial PLA2 (radiolabeled fatty acid release); assay type: biochemical; conditions: for pIC50: purified enzyme, 6.4 mM EGTA, pH 7.0, 5 min preincubation 25° C., 5 min at 37° C., read-out: Canine Heart PLA2 IC50; for selectivity for calcium-independent canine myocardial PLA2 over the calcium-dependent PLA2 enzymes: versus calcium-dependent PLA2 enzymes
Protocol: This assay consists of determining the amount of radiolabeled fatty acid which is liberated from the radiolabeled phospholipid substrate by purified calcium-independent canine myocardial PLA2 in the presence of varying concentrations of the inhibitor. […] This concentration is defined as the IC50.
Appropriate controls were performed in the absence of test compound. Catalysis was initiated by injection of 1 μM radiolabeled substrate (1-O-(Z)-(1'-hexadecenyl)-2-[9,10-^3 H]-oleoyl-3-phosphorylcholine). After a 5 min incubation at 37° C., reaction products were extracted with n-butanol, separated by thin layer chromatography, and quantified by scintillation spectrometry.
as §2

rat neonatal myocytes = conditions: cited from earlier work
[3] = LTB4 production, read-out: HL-60 LTB4 IC50
[4] = PGE2 production, >> : little or no inhibition at highest concentration, read-out: HL-60 PGE2 IC50

T1 sequence (P00592 23-146): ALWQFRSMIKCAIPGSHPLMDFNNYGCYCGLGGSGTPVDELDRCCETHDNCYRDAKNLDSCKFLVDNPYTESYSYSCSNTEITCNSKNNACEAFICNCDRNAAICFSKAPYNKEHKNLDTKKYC

SMILES	pIC50 (sheep platelet PLA2)	pIC50 (porcine pancreatic PLA2)	pIC50 [1]	pIC50 (HL-60 cells; [3])	pIC50 (HL-60 cells; [4])	pIC50 [2]	potency against canine myocardial PLA2 (in words) [2]	other results
O=C1O/C(=C/I)CCC1c1cccc2ccccc12 (centres unmarked) [Example 1, Tetrahydro-(E)-6-(iodomethylene)-3-(1-naphthalenyl)-2H-pyran-2-one]	4.00	< 4.00	< 4.00	4.93	< 4.00	7.51	most potent compound known against calcium-independent canine myocardial PLA2	HL-60 PGE2 activation (+X%) (HL-60 cells; PGE2 production): +300%; selectivity for calcium-independent canine myocardial PLA2 over the calcium-dependent PLA2 enzymes [2]: over 3200 -fold
C#C/C=C1\CCC(c2cccc3ccccc23)C(=O)O1 (centres unmarked) [Example 2, Tetrahydro-3-(1-Naphthalenyl)-(E)-6-(prop-2-ynylidene)-2H-pyran-2-one]	4.42	4.77	4.28	< 5.00	< 5.00			
O=C1O/C(=C/Br)CCC1c1cccc2ccccc12 (centres unmarked) [Example 3, (E)-6-(bromomethylene)tetrahydro-3-(1-naphthalenyl)-2H-pyran-2-one]	4.14	< 4.00	< 4.00	< 5.00	< 5.00	6.85	extremely potent inhibitors of canine myocardial PLA2	HL-60 PGE2 activation (+X%) (HL-60 cells; PGE2 production): +91%; selectivity for calcium-independent canine myocardial PLA2 over the calcium-dependent PLA2 enzymes [2]: over 500 -fold
O=C1O/C(=C\I)CCC1c1cccc2ccccc12 (centres unmarked) [Example 4, Tetrahydro-(Z)-6-(iodomethylene)-3-(1-naphthalenyl)-2H-pyran-2-one]						6.72	potency drops off by almost an order of magnitude	
O=C1CCC/C(=C\Br)O1 [Example 9, (E)-6-(Bromomethylene)tetrahydro-2H-pyran-2-one]								Canine Heart PLA2 inhibition at 100 μM ([2]; 100 μM, printed in the IC50 column with footnote 4): 28%
COC1=CCC2=C(CCC3C2CC[C@@]2(C)C3CC[C@@H]2N(C)CCCN(C)C)C1 (some centres unmarked) [U26,384]								release of arachidonic acid, phospholipid degradation, sarcolemmal membrane defects and release of creatine kinase (rat neonatal myocytes; induced by iodoacetate): prevented the release of arachidonic acid, phospholipid degradation, sarcolemmal membrane defects and the release of creatine kinase
O=C(O)CI [iodoacetate]								ATP levels, release of arachidonic acid and morphological alterations of myocytes (rat neonatal myocytes; rat neonatal myocytes): lowers the levels of ATP which results in the release of arachidonic acid and morphological alterations of the myocytes

Continued, in another order:

pIC50 (sheep platelet PLA2)	pIC50 (porcine pancreatic PLA2)	pIC50 [1]	pIC50 (HL-60 cells; [3])	pIC50 (HL-60 cells; [4])	pIC50 [2]	SMILES	potency against canine myocardial PLA2 (in words) [2]	other results
< 4.00	< 4.00	< 4.00	5.96	< 4.00	6.60	O=C1O/C(=C/Br)CCC1c1ccccc1 (centres unmarked) [Example 5, (E)-6-(Bromomethylene)tetrahydro-3-phenyl-2H-pyran-2-one]		HL-60 PGE2 activation (+X%) (HL-60 cells; PGE2 production): +63%; selectivity for calcium-independent canine myocardial PLA2 over the calcium-dependent PLA2 enzymes [2]: over 400 -fold
					5.77	O=C1O/C(=C/Br)CC1c1cccc2ccccc12 (centres unmarked) [Example 6, (E)-5-(Bromomethylene)tetrahydro-3-(1-naphthalenyl)-2(3H)-furanone]		
					4.66	C=C1CCC(c2cccc3ccccc23)C(=O)O1 (centres unmarked) [Example 7, Tetrahydro-6-methylene-3-(1-naphthalenyl)-2H-pyran-2-one]	loss of more than two orders of magnitude in potency	
					4.68	O=C1O/C(=C/Br)CCC1Oc1ccccc1 (centres unmarked) [Example 8, (E)-6-(Bromomethylene)tetrahydro-3-phenoxy-2H-pyran-2-one]		
					4.12	O=C1O/C(=C/Br)CCC1c1cccnc1 (centres unmarked) [Example 10, (E)-6-(Bromomethylene)tetrahydro-3-(3-pyridyl)-2H-pyran-2-one Hydrochloride]		
